Assay results from US20230227405A1, “5-OXOPYRROLIDINE-3-CARBOXAMIDES AS NAV1.8 INHIBITORS” (MERCK SHARP & DOHME CORP., priority 2020, published 2023).

What follows are molecules tested against T1, human Nav1.8 (Homo sapiens, UniProt Q9Y5Y9) (assay: Qube® automated patch-clamp assay, Nav1.8). Conditions: human Nav1.8 stably expressed in HEK 293 cells; whole-cell voltage clamp, room temperature; read-out: IC50 values (nM) for Examples in the Nav1.8 Qube® Assay.
T1 construct: expressed in transfected cells
T1 sequence (Q9Y5Y9 whole entry): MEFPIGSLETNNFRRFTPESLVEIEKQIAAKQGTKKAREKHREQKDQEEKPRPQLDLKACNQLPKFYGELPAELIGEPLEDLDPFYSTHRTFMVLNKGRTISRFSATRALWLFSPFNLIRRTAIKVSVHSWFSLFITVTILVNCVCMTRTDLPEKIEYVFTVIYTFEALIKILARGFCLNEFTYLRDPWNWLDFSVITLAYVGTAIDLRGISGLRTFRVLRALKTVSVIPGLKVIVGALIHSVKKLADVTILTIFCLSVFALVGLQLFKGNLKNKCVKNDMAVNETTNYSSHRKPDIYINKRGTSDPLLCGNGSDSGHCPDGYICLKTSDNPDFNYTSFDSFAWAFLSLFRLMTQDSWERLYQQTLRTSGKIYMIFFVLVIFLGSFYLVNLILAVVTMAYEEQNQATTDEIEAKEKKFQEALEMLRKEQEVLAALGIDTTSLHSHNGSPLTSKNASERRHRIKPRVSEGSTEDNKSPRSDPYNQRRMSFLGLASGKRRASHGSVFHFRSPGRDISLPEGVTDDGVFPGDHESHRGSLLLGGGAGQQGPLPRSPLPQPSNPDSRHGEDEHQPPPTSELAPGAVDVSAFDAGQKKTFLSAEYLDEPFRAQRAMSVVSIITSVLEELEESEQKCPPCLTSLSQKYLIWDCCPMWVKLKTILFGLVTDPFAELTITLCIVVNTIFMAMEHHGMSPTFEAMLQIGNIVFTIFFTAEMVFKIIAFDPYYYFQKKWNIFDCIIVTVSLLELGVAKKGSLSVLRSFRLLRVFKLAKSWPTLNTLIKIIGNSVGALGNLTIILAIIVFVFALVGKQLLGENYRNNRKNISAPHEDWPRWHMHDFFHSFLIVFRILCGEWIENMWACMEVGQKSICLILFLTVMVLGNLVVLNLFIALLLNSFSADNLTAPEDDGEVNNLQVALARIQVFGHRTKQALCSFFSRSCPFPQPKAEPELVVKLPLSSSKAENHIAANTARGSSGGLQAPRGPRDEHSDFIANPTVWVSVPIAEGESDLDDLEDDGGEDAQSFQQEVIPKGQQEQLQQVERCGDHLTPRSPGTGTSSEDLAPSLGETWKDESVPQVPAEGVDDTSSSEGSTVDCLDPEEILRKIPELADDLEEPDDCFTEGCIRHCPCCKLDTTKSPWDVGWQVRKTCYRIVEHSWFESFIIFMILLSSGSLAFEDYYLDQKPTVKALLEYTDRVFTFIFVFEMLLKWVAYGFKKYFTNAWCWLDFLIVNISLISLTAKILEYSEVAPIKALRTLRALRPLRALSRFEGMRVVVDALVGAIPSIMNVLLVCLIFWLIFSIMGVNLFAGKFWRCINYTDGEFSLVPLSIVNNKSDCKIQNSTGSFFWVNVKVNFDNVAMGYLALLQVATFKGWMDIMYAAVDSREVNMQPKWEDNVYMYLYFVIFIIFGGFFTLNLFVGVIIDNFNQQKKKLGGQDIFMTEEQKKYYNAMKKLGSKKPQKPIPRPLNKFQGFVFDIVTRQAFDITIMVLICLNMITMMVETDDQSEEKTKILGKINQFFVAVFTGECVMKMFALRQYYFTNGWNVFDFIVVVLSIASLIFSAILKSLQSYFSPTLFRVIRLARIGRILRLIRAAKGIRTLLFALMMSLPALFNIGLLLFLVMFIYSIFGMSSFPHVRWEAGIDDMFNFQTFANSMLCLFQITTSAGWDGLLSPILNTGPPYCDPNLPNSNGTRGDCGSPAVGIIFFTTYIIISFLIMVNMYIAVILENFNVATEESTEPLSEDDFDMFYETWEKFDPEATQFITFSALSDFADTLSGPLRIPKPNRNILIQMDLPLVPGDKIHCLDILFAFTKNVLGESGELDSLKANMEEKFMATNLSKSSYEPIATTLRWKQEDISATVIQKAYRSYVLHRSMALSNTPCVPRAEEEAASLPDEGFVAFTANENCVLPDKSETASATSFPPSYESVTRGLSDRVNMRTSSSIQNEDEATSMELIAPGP
Format: cell-based
Experimental: Compounds were tested on human Nav1.8 and Nav1.5 channels stably expressed in human embryo kidney (HEK) 293 cells. Sodium current measurements on Qube® were conducted as follows: automated 384-well patch-clamp assays on the Qube® platform (Sophion Biosciences) were used to measure the inhibition of sodium flow through human Nav1.8 and Nav1.5 channels. Whole-cell voltage-clamp recordings were performed in QChips® (Sophion Biosciences) at room temperature. Nav1.8 current measurements on Qube® were obtained as follows: Nav1.8 currents were elicited with a 10 second 1 Hertz (Hz) pulse train from a holding potential of −90 millivolts (mV), delivered to the cells once per minute in the control condition (DMSO only) and after compound addition. The 1 hertz pulse train stimulation consisted of ten test pulses to 10 millivolt (mV) for 20 milliseconds (ms), each of which was followed by a 980 millisecond repolarization to −67 millivolts. At the end of the 10 second pulse train stimulation, a 5 second hyperpolarization step to −100 millivolt (mV) was used to recover Nav1.8 from fast inactivation. The peak currents elicited by the 1st and 10th test pulses were used to determine IC50 values for resting inhibition and inactivated state inhibition. Nav1.5 current measurements on Qube® were obtained as follows: Nav1.5 currents were elicited with a 20 second 3 Hertz pulse train in the control condition (DMSO only) and after compound addition. The pulse train consisted of sixty 20 millisecond test pulses to 0 millivolt from a holding potential of −80 millivolt (mV). The average peak currents elicited by the last 3 test pulses were used to determine IC50 values for Nav1.5 inhibition.
The following buffers were used for the Qube® recordings: External buffer for Nav1.8 Qube® recording: 150 NaCl, 2 CaCl2, 5 KCl, 1 Mg Cl2, 10 HEPES, 12 Dextrose; External buffer for Qube® Nav1.5 recording: 120 N-Methyl-D-Glucamine, 40 NaCl, 1 KCl, 2.7 CaCl2, 5 HEPES, 0.5 MgCl2; and Internal buffer for Qube® recording: 120 CsF, 30 CsCl, 10 EGTA, 5 HEPES, 5 NaF, 2 MgCl2.
For all Qube® experiments offline analysis was used to determine percent inhibition as a function of drug concentration. IC50 values were determined by fitting to the Hill equation.

IC50 | Compound
7650 nM | CC1C(=O)NCC1C(=O)NC(c1ccc(Cl)cc1)c1ccc(Cl)cc1 (single isomer, unassigned) [Example 27D, (3(R or S),4(R or S)—N-(bis(4-chlorophenyl)methyl)-4-methyl-5-oxopyrrolidine-3-carboxamide]
820 nM | N#Cc1cccc(C(NC(=O)[C@@H]2CNC(=O)C2)c2cccc(Cl)c2)c1 (stereo partly drawn) [Example 2, (3S)-N-((3-chlorophenyl)(3-cyanophenyl)methyl)-5-oxopyrrolidine-3-carboxamide]
186 nM | O=C1C[C@H](C(=O)NC(c2ccc(Cl)cc2)c2ccc(C3CC3)cc2)CN1 (stereo partly drawn) [Example 3, (3S)-N-((4-chlorophenyl)(4-cyclopropylphenyl)methyl)-5-oxopyrrolidine-3-carboxamide]
108 nM | CC(C)c1ccc(C(NC(=O)[C@@H]2CNC(=O)C2)c2ccc(Cl)cc2)cc1 (stereo partly drawn) [Example 4, (3S)-N-((4-chlorophenyl)(4-isopropylphenyl)methyl)-5-oxopyrrolidine-3-carboxamide]
11 nM | COc1cc(Cl)ccc1C(NC(=O)[C@@H]1CNC(=O)C1)c1ccc(Cl)cc1 (stereo partly drawn) [Example 5, (3S)-N-((4-chloro-2-methoxyphenyl)(4-chlorophenyl)methyl)-5-oxopyrrolidine-3-carboxamide]
520 nM | O=C1C[C@H](C(=O)NC(c2cccc(Cl)c2)c2cccc(OC(F)F)c2)CN1 (stereo partly drawn) [Example 6, (3S)-N-((3-chlorophenyl)(3-(difluoromethoxy)phenyl)methyl)-5-oxopyrrolidine-3-carboxamide]
186 nM | O=C1C[C@H](C(=O)NC(c2ccc(Cl)cc2)c2cc(F)cc(C(F)(F)F)c2)CN1 (stereo partly drawn) [Example 7, (3S)-N-((4-chlorophenyl)(3-fluoro-5-(trifluoromethyl)phenyl)methyl)-5-oxopyrrolidine-3-carboxamide]
19 nM | O=C1C[C@H](C(=O)NC(c2ccc(C(F)(F)F)cc2)c2cccc(C(F)(F)F)c2)CN1 (stereo partly drawn) [Example 8, (3S)-5-oxo-N-((3-(trifluoromethyl)phenyl)(4-(trifluoromethyl)phenyl)methyl)pyrrolidine-3-carboxamide]
28 nM | O=C1C[C@H](C(=O)NC(c2ccc(C(F)(F)F)cc2)c2ccc(C(F)(F)F)cc2)CN1 [Example 9, (S)-N-(bis(4-(trifluoromethyl)phenyl)methyl)-5-oxopyrrolidine-3-carboxamide]
52 nM | O=C1C[C@H](C(=O)NC(c2ccc(Cl)cc2)c2cccc(OC(F)(F)F)c2)CN1 (stereo partly drawn) [Example 10, (3S)-N-((4-chlorophenyl)(3-(trifluoromethoxy)phenyl)methyl)-5-oxopyrrolidine-3-carboxamide]
5.3 nM | O=C1C[C@H](C(=O)NC(c2ccc(F)c(Cl)c2)c2ccc(F)c(Cl)c2)CN1 [Example 18, (S)-N-(bis(3-chloro-4-fluorophenyl)methyl)-5-oxopyrrolidine-3-carboxamide]
32 nM | N#Cc1cc(C(NC(=O)[C@@H]2CNC(=O)C2)c2ccc(F)c(Cl)c2)ccc1F (stereo partly drawn) [Example 22, (3S)—N-((3-chloro-4-fluorophenyl)(3-cyano-4-fluorophenyl)methyl)-5-oxopyrrolidine-3-carboxamide]
92 nM | O=C1C[C@H](C(=O)NC(c2ccc(F)c(C(F)(F)F)c2)c2csc(C(F)(F)F)n2)CN1 (stereo partly drawn) [Example 23, (3S)-N-((4-fluoro-3-(trifluoromethyl)phenyl)(2-(trifluoromethyl)thiazol-4-yl)methyl)-5-oxopyrrolidine-3-carboxamide]
5.5 nM | O=C1C[C@H](C(=O)NC(c2ccc(F)c(C(F)(F)F)c2)c2ccc(F)c(Cl)c2F)CN1 (stereo partly drawn) [Example 24, (3S)-N-((3-chloro-2,4-difluorophenyl)(4-fluoro-3-(trifluoromethyl)phenyl)methyl)-5-oxopyrrolidine-3-carboxamide]
53 nM | O=C1C[C@H](C(=O)NC(COc2ccccc2)c2ccc(F)c(C(F)(F)F)c2)CN1 (stereo partly drawn) [Example 25, (3S)-N-(1-(4-fluoro-3-(trifluoromethyl)phenyl)-2-phenoxyethyl)-5-oxopyrrolidine-3-carboxamide]
435 nM | O=C1C[C@H](C(=O)NC(CCc2ccccc2)c2cccc(Cl)c2)CN1 (stereo partly drawn) [Example 26, (3S)-N-(1-(3-chlorophenyl)-3-phenylpropyl)-5-oxopyrrolidine-3-carboxamideNa]
